Laboratory results from ChEMBL document CHEMBL1201862, “PubChem BioAssay data set” (2004).
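Five concentrations, 48 hours, 96-well plates. GI50 is the concentration that inhibits growth by half.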 Calls of active or inactive are those of the source. Rule as the data show it: active = GI50 up to about 1.1 µM and inactive = higher.

What was measured:
Test in all cases: growth of human tumour cells (NCI), 48 h
SNB-78 = test system: SNB-78
DLD-1 = test system: DLD-1
M19-MEL = test system: M19-MEL
LXFL 529 = test system: LXFL 529
DMS-273 = test system: DMS-273
XF498 = test system: XF498
HOP-18 = test system: HOP-18
DMS-114 = test system: DMS-114
RXF 631 = test system: RXF 631

Measured: GI50

COc1cccc(NC(=O)C(=O)C(C(=O)c2ccccc2F)C2OC(=O)c3ccccc32)c1 (stereo not given)
inactive: SNB-78 15.5 µM | DLD-1 36.6 µM | M19-MEL 22.9 µM | LXFL 529 33.6 µM | DMS-273 29 µM

CCC(C)(C)NC1=C(NC(C)=O)C(=O)c2ccccc2C1=O
inactive: SNB-78 35.2 µM | DLD-1 43.1 µM | M19-MEL 13.3 µM | XF498 14.4 µM | LXFL 529 45.6 µM | DMS-273 53.5 µM

CC1(C)OCC(C(O)C2OC(C)(C)OC2/C=N\O)O1 (stereo not given)
inactive: SNB-78 > 100 µM | HOP-18 37.5 µM | DLD-1 > 100 µM | M19-MEL > 100 µM | XF498 > 100 µM | LXFL 529 > 100 µM | DMS-273 > 100 µM | DMS-114 > 100 µM

CCCCCCCCSC(SCCCCCCCC)=C1C(=O)N(c2ccccc2)N=C1C
inactive: SNB-78 > 100 µM | RXF 631 > 100 µM | HOP-18 61.7 µM | DLD-1 21.4 µM | M19-MEL 37 µM | LXFL 529 43.4 µM | DMS-273 49.4 µM | DMS-114 28.4 µM

O=C1CCC(c2nc3cc(Cl)ccc3o2)C(=O)N1 (stereo not given)
inactive: SNB-78 > 100 µM | RXF 631 > 100 µM | HOP-18 > 100 µM | DLD-1 > 100 µM | M19-MEL > 100 µM | LXFL 529 > 100 µM | DMS-273 > 100 µM | DMS-114 > 100 µM

COC(=O)C(C(=O)C(=O)Nc1c(Cl)cc([N+](=O)[O-])cc1Cl)c1csc(-n2nc(C3=CCCCC3)cc2-c2ccccc2)n1 (stereo not given)
inactive: SNB-78 40 µM | RXF 631 45.6 µM | HOP-18 10.3 µM | DLD-1 28.8 µM | M19-MEL 52.7 µM | LXFL 529 40.7 µM | DMS-273 74.5 µM

COC(=O)/C(=C1\OC(=O)C(c2ccc(Cl)cc2)=C1O)c1ccc(Cl)cc1
inactive: SNB-78 26.4 µM | HOP-18 21 µM | DLD-1 29.4 µM | M19-MEL 22.1 µM | XF498 16.9 µM | LXFL 529 26.6 µM | DMS-273 13.2 µM | DMS-114 15.8 µM

C[C@]12CCC(=O)C=C1CC[C@@H]1[C@@H]2[C@@H](O)C[C@@]2(C)[C@H]1CC[C@]2(O)C(=O)COC(=O)COCC(=O)O
inactive: SNB-78 20.9 µM | HOP-18 > 100 µM | DLD-1 > 100 µM | M19-MEL > 100 µM | XF498 > 100 µM | DMS-273 > 100 µM | DMS-114 > 100 µM

COc1c2ccoc2c(S(=O)(=O)Nc2ccc(Cl)cc2)c2oc(C)cc(=O)c12
inactive: SNB-78 > 100 µM | HOP-18 > 54.8 µM | DLD-1 > 100 µM | M19-MEL > 100 µM | XF498 > 85.1 µM | DMS-273 > 100 µM | DMS-114 > 68.2 µM

O=C(O/N=C1\CCCC\C1=C/c1ccccc1)c1ccc([N+](=O)[O-])cc1
inactive: SNB-78 > 100 µM | RXF 631 > 100 µM | HOP-18 > 100 µM | DLD-1 80 µM | M19-MEL > 100 µM | LXFL 529 54 µM | DMS-273 > 100 µM | DMS-114 61.9 µM

O=C(O)CCCCCCC[C@@H]1S[C@H]1CCCCCCO
inactive: SNB-78 > 100 µM | HOP-18 > 100 µM | DLD-1 > 100 µM | M19-MEL > 100 µM | XF498 > 100 µM | DMS-273 > 100 µM | DMS-114 > 100 µM

CC1CCC(C(C)C)C(O[C@@H]2OC(=O)C[C@@H]2Sc2ccccc2)C1 (stereo not given in full)
inactive: SNB-78 25.3 µM | RXF 631 21.2 µM | DLD-1 33.1 µM | M19-MEL 24 µM | LXFL 529 19.1 µM | DMS-273 18.4 µM | DMS-114 19.5 µM

O=C(C/C(CCC(=O)N(Cc1ccccc1)Cc1ccccc1)=N/Nc1ccc([N+](=O)[O-])cc1[N+](=O)[O-])c1ccccc1
inactive: SNB-78 > 100 µM | HOP-18 > 100 µM | DLD-1 49.9 µM | M19-MEL 68.4 µM | XF498 > 100 µM | LXFL 529 25 µM | DMS-273 > 100 µM | DMS-114 > 100 µM

OCC1=CC(NC2CC(CO)C(O)C(O)C2O)C(O)C(O)C1O (stereo not given)
inactive: HOP-18 > 100 µM | DLD-1 > 100 µM | M19-MEL > 100 µM | XF498 64.9 µM | DMS-273 > 100 µM | DMS-114 > 100 µM

CC(=O)OCC1OC(n2cnc3c(I)nc(I)nc32)C(OC(C)=O)C1OC(C)=O (stereo not given)
inactive: RXF 631 15.5 µM | DLD-1 10.8 µM | M19-MEL 3.66 µM | XF498 20.9 µM | LXFL 529 13.4 µM | DMS-273 6.84 µM | DMS-114 4.21 µM

COC1=CC(=O)[C@]2(C)[C@H](C1=O)C(C)[C@H]2c1ccccc1 (stereo not given in full)
inactive: SNB-78 > 100 µM | RXF 631 > 100 µM | DLD-1 > 100 µM | M19-MEL > 100 µM | XF498 > 100 µM | LXFL 529 > 100 µM | DMS-273 > 100 µM

Cc1c2ccncc2c(C)c2c1[nH]c1ccc(O)c(OCC(F)(F)F)c12
inactive: SNB-78 4.47 µM | DLD-1 8 µM | XF498 12.6 µM | LXFL 529 5.12 µM | DMS-273 1.79 µM | DMS-114 2.44 µM

O=C(C#Cc1cnc(O)nc1O)c1ccccc1Cl
inactive: SNB-78 24.8 µM | HOP-18 20 µM | DLD-1 15.5 µM | DMS-273 19.1 µM | DMS-114 21.9 µM

CN(C)CCNc1ccc2nnn3c4ccc(O)cc4c(=O)c1c23
inactive: SNB-78 12.7 µM | HOP-18 21.3 µM | DLD-1 3.4 µM | LXFL 529 3.01 µM | DMS-114 5.79 µM
